Measured values taken from US12064516B2, “Pharmaceutical formulations and uses thereof” (Aldeyra Therapeutics, Inc., priority 2020, dated 2024).
Where two headings read alike, the source gives them in different places.

Assay: Pharmacokinetics of compound I-1 in the dog by intravenous, oral gavage and oral capsule routes
Type: in vivo, beagle dogs
Conditions: for concentration at 0.083 h / concentration at 0.25 h / concentration at 0.5 h / concentration at 1 h / concentration at 2 h / concentration at 4 h / concentration at 8 h / concentration at 12 h / AUC(0-inf) / AUC(0-t) / C0 / clearance / half-life / Vd: male, beagle, dog, plasma; for concentration at 0.083 h / concentration at 0.25 h / concentration at 0.5 h / concentration at 1 h / concentration at 2 h / concentration at 4 h / concentration at 8 h / concentration at 12 h: read-out: Concentration at time point; for Vd: read-out: Vss
Description: A pharmacokinetic study was conducted to compare the bioavailability of capsule and suspension oral formulations vs. an intravenous formulations.
The standard curve was prepared from 1 to 2,000 ng/mL. QC samples were prepared at […]. Dilution QCs were prepared at 10-fold dilution. Deuterated (d6) I-1 (compound 1-7) was used as an internal standard. A 50 μL aliquot of sample was added to 150 μL of cold internal standard in acetonitrile to effect protein precipitation. The resulting supernatants were analyzed by LCMS. Diluted sample data was utilized only for over-the-curve results.
Briefly, 9 male non-naïve beagle dogs were assigned in groups of 3 to 3 dose groups. Group 1 was dosed 3 mg/kg by the intravenous route in a vehicle of 20% sulfobutylether-β-cyclodextrin (SBECD). Group 2 was dosed 10 mg/kg by the oral gavage route in a vehicle of 0.5% methylcellulose (MC). Group 3 was dosed with 100 mg capsules.
The I-1 100 mg capsules are manufactured as a non-sterile spray dried, granulated powder blend. The blend is then filled into capsules for oral delivery. The capsules are packaged in high-density polyethylene bottles. The quantitative composition of the I-1 100 mg capsule is presented above in Table B.
Procedure: (PO) gavage: formulations will be administered via a rubber oral gavage tube followed by a 10 mL flush with drinking water. (PO) tablet: tablets will be administered orally by placing the tablet in the back of the throat followed by a 10 mL flush with water.
Frequency: Pre-dose, 5, 15, 30 min, 1, 2, 4, 8, and 12 hrs post-dose (IV); pre-dose, 15, 30 min, 1, 2, 4, 8, and 12 hrs post-dose (PO by gavage and PO by capsule).
Blood collection: each blood sample will be collected from the dog's jugular vein or other accessible vein via direct venepuncture, placed into a pre-labeled tube containing K2EDTA and kept on ice until centrifugation.
Plasma preparation and storage: Certifuged at 4 C at 3,000× for 5 mm. Stored in a freezer until analysed.
Pharmacokinetics package PKSolver2.0™ has been validated against WinNonLin™ as a tool for non-GLP studies and was used to process the pharmacokinetic data.
For each route, the average data were processed with non-compartmental, one compartment, and two compartment models. The models were assessed for goodness of fit and the accuracy of the model to assess the biphasic data, with either a) no weighting, b) 1/concentration observed, or c) 1/concentration observed squared. 1/concentration predicted, and 1/concentration predicted squared weightings were also assessed for best fit. […] The zeros were averaged with the 71.5 value for a resulting average of 23.8. For the In Group 2 (PO Gavage) subject 3 experienced 30 mL of emesis, so the dose assigned to that subject was 7.46. In all cases, the subjects were modelled individually, and the individual PK parameters were averaged to provide final parameters.
For group 1 (intravenous) the final model selected was a two compartment model with 1/concentration observed squared weighting.
For group 2 (oral gavage) the final model was a two compartment extravascular model with 1/concentration predicted squared weighting.
For group 3 (oral capsule) the final model was a one compartment extravascular model with a lag time and no weighting. […] The body weight of each animal was used to assign a mg/kg dose to each individual. Subject 1 was dosed at 7.69 mg/kg. Subject 2 was 6.94 mg/kg, and Subject 3 was 6.99 mg/kg.

[1] = iv, 3 mg/kg, Group 1: IV 3 mg/kg, Average
[2] = iv, 3 mg/kg, Group 1: IV 3 mg/kg, Subject 1
[3] = iv, 3 mg/kg, Group 1: IV 3 mg/kg, Subject 2
[4] = iv, 3 mg/kg, Group 1: IV 3 mg/kg, Subject 3
[5] = iv, 3 mg/kg, Intravenous - 3 mg/kg, Average
[6] = iv, 3 mg/kg, Intravenous - 3 mg/kg, Subj1
[7] = iv, 3 mg/kg, Intravenous - 3 mg/kg, Subj2
[8] = iv, 3 mg/kg, Intravenous - 3 mg/kg, Subj3
[9] = oral, 7 mg/kg, Group 3: PO Capsule 7 mg/kg, Subject 1
[10] = oral, 7 mg/kg, Group 3: PO Capsule 7 mg/kg, Subject 3
[11] = oral, 7 mg/kg, Group 3: PO Capsule 7 mg/kg, Average
[12] = oral, 7 mg/kg, Group 3: PO Capsule 7 mg/kg, Subject 2

## CC(C)(O)c1nc2ccccc2cc1N [I-1]
100 mg Capsule, average dose 7.2 mg/kg, Average
  AUC/Dose: 1139 ng·h/mL/mg/kg
100 mg Capsule, average dose 7.2 mg/kg, Subj1
  AUC/Dose: 955 ng·h/mL/mg/kg
100 mg Capsule, average dose 7.2 mg/kg, Subj2
  AUC/Dose: 809 ng·h/mL/mg/kg
100 mg Capsule, average dose 7.2 mg/kg, Subj3
  AUC/Dose: 1653 ng·h/mL/mg/kg
Intravenous - 3 mg/kg, Average
  AUC/Dose: 1379
Intravenous - 3 mg/kg, Subj1
  AUC/Dose: 1361
Intravenous - 3 mg/kg, Subj2
  AUC/Dose: 1520
Intravenous - 3 mg/kg, Subj3
  AUC/Dose: 1256
Oral Gavage 0.5% Methylcellulose 10 mg/kg, Average
  AUC/Dose: 1038 ng·h/mL/mg/kg
Oral Gavage 0.5% Methylcellulose 10 mg/kg, Subj1
  AUC/Dose: 1121 ng·h/mL/mg/kg
Oral Gavage 0.5% Methylcellulose 10 mg/kg, Subj2
  AUC/Dose: 1010 ng·h/mL/mg/kg
Oral Gavage 0.5% Methylcellulose 10 mg/kg, Subj3 (dose assigned 7.46 after emesis)
  AUC/Dose: 982 ng·h/mL/mg/kg
[1]
  concentration at 0.083 h: 5080 ng/mL
  concentration at 0.25 h: 2410 ng/mL
  concentration at 0.5 h: 1660 ng/mL
  concentration at 1 h: 951 ng/mL
  concentration at 2 h: 548 ng/mL
  concentration at 4 h: 250 ng/mL
  concentration at 8 h: 42.5 ng/mL
  concentration at 12 h: 15.5 ng/mL
[2]
  concentration at 0.083 h: 4910 ng/mL
  concentration at 0.25 h: 2780 ng/mL
  concentration at 0.5 h: 1720 ng/mL
  concentration at 1 h: 857 ng/mL
  concentration at 2 h: 436 ng/mL
  concentration at 4 h: 259 ng/mL
  concentration at 8 h: 49 ng/mL
  concentration at 12 h: 23.9 ng/mL
[3]
  concentration at 0.083 h: 4900 ng/mL
  concentration at 0.25 h: 2300 ng/mL
  concentration at 0.5 h: 1700 ng/mL
  concentration at 1 h: 908 ng/mL
  concentration at 2 h: 766 ng/mL
  concentration at 4 h: 287 ng/mL
  concentration at 8 h: 55.4 ng/mL
  concentration at 12 h: 17 ng/mL
[4]
  concentration at 0.083 h: 5430 ng/mL
  concentration at 0.25 h: 2150 ng/mL
  concentration at 0.5 h: 1570 ng/mL
  concentration at 1 h: 1090 ng/mL
  concentration at 2 h: 443 ng/mL
  concentration at 4 h: 203 ng/mL
  concentration at 8 h: 23.1 ng/mL
  concentration at 12 h: 5.5 ng/mL
[5]
  AUC(0-inf): 4140 ng·h/mL
  AUC(0-t): 4100 ng·h/mL
  C0: 6720 ng/mL
  clearance: 12.2 mL/min/kg
  half-life: 109 min
  Vd: 1.39 L/kg
[6]
  AUC(0-inf): 4080 ng·h/mL
  AUC(0-t): 4030 ng·h/mL
  C0: 5600 ng/mL
  clearance: 12.2 mL/min/kg
  half-life: 132 min
  Vd: 1.51 L/kg
[7]
  AUC(0-inf): 4560 ng·h/mL
  AUC(0-t): 4520 ng·h/mL
  C0: 6670 ng/mL
  clearance: 11 mL/min/kg
  half-life: 109 min
  Vd: 1.4 L/kg
[8]
  AUC(0-inf): 3770 ng·h/mL
  AUC(0-t): 3760 ng·h/mL
  C0: 7890 ng/mL
  clearance: 13.3 mL/min/kg
  half-life: 86.4 min
  Vd: 1.25 L/kg
[9]
  concentration at 0.25 h: 0 ng/mL
  concentration at 0.5 h: 1.1 ng/mL
  concentration at 1 h: 24 ng/mL
  concentration at 2 h: 1740 ng/mL
[10]
  concentration at 0.25 h: 0 ng/mL
  concentration at 0.5 h: 1 ng/mL
  concentration at 1 h: 134 ng/mL
  concentration at 2 h: 3990 ng/mL
[11]
  concentration at 0.5 h: 97.4 ng/mL
  concentration at 1 h: 137 ng/mL
  concentration at 2 h: 2350 ng/mL
  concentration at 4 h: 985 ng/mL
[12]
  concentration at 0.5 h: 290 ng/mL
  concentration at 1 h: 254 ng/mL
  concentration at 2 h: 1320 ng/mL
